The record followed here is patent US9468209B2, “Method for eradicating weeds with derivatives of 3-acetyl-5-sec-butyl-4-hydroxy-3-pyrrolin-2-one” (priority 2012, dated 2016).

One assay has as its system Wild oats. The assay can be described thus: Leaf piece damage test. Format: in vivo. Further details: key: 4: The leaf completely dead; 3: Two third of the leaf withered; 2: One half of the leaf withered; 1: Only edge of the leaf withered; 0: Not damage at all. The following applies: 50 μg/mL, 4 days. The procedure: (§1) Compounds 7, 14, 15, 16, 40, 45, 48 and 53 were dissolved individually in small amount of methanol, and diluted with distilled water to concentration of 50 μg/mL. Methanol water solution and pure water were used as control. A piece of 5 mm leaf was taken from the second leaf of weed sample and was treated with the solution three times. 5 pieces of the leaf were prepared for each treatment. The damage data were collected 4 days later. The measurement of damage level is described in the Table 9.
(§2) The measurement of the plant damage was calculated by the formula: Damage Index=Σ(damage level×number of plants)×100/4/number of plants in each treatment.

A further assay relates to Polygonum hydropiper. The assay can be described thus: Leaf piece damage test. Format: in vivo. More on the design: key: 4: The leaf completely dead; 3: Two third of the leaf withered; 2: One half of the leaf withered; 1: Only edge of the leaf withered; 0: Not damage at all. Conditions: 50 μg/mL, 4 days. The procedure:
as §1, §2

The next assay concerns Trifolium pretense. Put plainly: Leaf piece damage test. More on the design: key: 4: The leaf completely dead; 3: Two third of the leaf withered; 2: One half of the leaf withered; 1: Only edge of the leaf withered; 0: Not damage at all. Format: in vivo. Conditions: 50 μg/mL, 4 days. As for the experimental part: as §1, §2
A further assay relates to Carpesium abrotanoides. The assay can be described thus: Leaf piece damage test. Format: in vivo. More on the design: key: 4: The leaf completely dead; 3: Two third of the leaf withered; 2: One half of the leaf withered; 1: Only edge of the leaf withered; 0: Not damage at all. The following applies: 50 μg/mL, 4 days. As for the experimental part: as §1, §2
Another assay relates to Commelina communis. The assay can be described thus: Leaf piece damage test. Format: in vivo. Further details: key: 4: The leaf completely dead; 3: Two third of the leaf withered; 2: One half of the leaf withered; 1: Only edge of the leaf withered; 0: Not damage at all. Conditions: 50 μg/mL, 4 days. The procedure:
as §1, §2

A further assay deals with Keng stiffgrass. The assay can be described thus: Leaf piece damage test. Format: in vivo. Further details: key: 4: The leaf completely dead; 3: Two third of the leaf withered; 2: One half of the leaf withered; 1: Only edge of the leaf withered; 0: Not damage at all. The following applies: 50 μg/mL, 4 days. As for the experimental part: as §1, §2
The test system of another assay is Abrtilon theophrasti. The assay can be described thus: Leaf piece damage test. The following applies: 50 μg/mL, 4 days. Format: in vivo. More on the design: key: 4: The leaf completely dead; 3: Two third of the leaf withered; 2: One half of the leaf withered; 1: Only edge of the leaf withered; 0: Not damage at all. As for the experimental part:
as §1, §2

In a further assay the test system is Xanthium sibiricum. The assay can be described thus: Leaf piece damage test. Format: in vivo. More on the design: key: 4: The leaf completely dead; 3: Two third of the leaf withered; 2: One half of the leaf withered; 1: Only edge of the leaf withered; 0: Not damage at all. Conditions: 50 μg/mL, 4 days. As for the experimental part: as §1, §2
In a further assay the test system is Malvaceae. The assay can be described thus: Leaf piece damage test. Conditions: 50 μg/mL, 4 days. Further details: key: 4: The leaf completely dead; 3: Two third of the leaf withered; 2: One half of the leaf withered; 1: Only edge of the leaf withered; 0: Not damage at all. Format: in vivo. The procedure: as §1, §2
Another assay relates to Duchesnea indica. The assay can be described thus: Leaf piece damage test. The following applies: 50 μg/mL, 4 days. More on the design: key: 4: The leaf completely dead; 3: Two third of the leaf withered; 2: One half of the leaf withered; 1: Only edge of the leaf withered; 0: Not damage at all. Format: in vivo. The procedure: as §1, §2
Another assay concerns Commelina bengalensis. Put plainly: Leaf piece damage test. Format: in vivo. More on the design: key: 4: The leaf completely dead; 3: Two third of the leaf withered; 2: One half of the leaf withered; 1: Only edge of the leaf withered; 0: Not damage at all. The following applies: 50 μg/mL, 4 days. As for the experimental part: as §1, §2
The next assay has as its system Acalypha australis. The assay can be described thus: Leaf piece damage test. Format: in vivo. Further details: key: 4: The leaf completely dead; 3: Two third of the leaf withered; 2: One half of the leaf withered; 1: Only edge of the leaf withered; 0: Not damage at all. Conditions: 50 μg/mL, 4 days. As for the experimental part: as §1, §2
Another assay relates to photosystem II. The assay can be described thus: PSII oxygen evolution / electron transfer activity of treated Crofton weed leaves. Format: biochemical. Conditions: 50 μg/mL, strong light 12 hours. In outline: (§3)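 Cleaned Crofton weed leaves had 50 μg/mL compound (methanol diluted in water) applied to the underside, with matching methanol–water control. Vacuum 15 min at 25° C, then 12 h strong light (400 μM m^−2 s^−1) before measuring Hill reaction, electron transfer and chlorophyll fluorescence; four leaves per treatment, tested three times.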

For another assay, the system named is Hill reaction. The assay can be described thus: Hill reaction activity of treated Crofton weed leaves. The following applies: 50 μg/mL, strong light 12 hours. Format: biochemical. In outline: as §3
In another assay the test system is Crofton weed. Put plainly: Needle puncture pathogenic test on slightly wounded leaf of Crofton weed. Conditions: Crofton weed leaf, 50 μg/mL, 25° C., natural light. Format: in vivo. Put shortly: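 Compounds in a little methanol were diluted with water to 50 μg/mL (5–100 μg/g in a range test) and applied by needle to slightly wounded Crofton weed leaves. Leaves were kept at 25 °C under natural light with six or more replicates, against methanol/water controls. Lesion spot diameter was measured after 24 h.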

Assay [1] has as its system fluorescence of chlorophyll. The assay can be described thus: Fluorescence of chlorophyll of treated Crofton weed leaves. Format: biochemical. Conditions: 50 μg/mL, strong light 12 hours. Put shortly:
as §3

On to `CCCC(Cl)C1NC(=O)C(C(C)=O)=C1O` (centres unmarked) [Compound 40], for which the Damage level in the assay with Wild oats was 3; in the assay on Polygonum hydropiper, 2; in the assay with Trifolium pretense, 3; with Carpesium abrotanoides, 3; in the assay with Commelina communis, 3; in the assay on Keng stiffgrass it was 3. In addition, the Damage level came out at 3 with Abrtilon theophrasti; 2 with Xanthium sibiricum; 2 in the assay with Malvaceae; 2 in the assay with Duchesnea indica; 3 in the assay on Commelina bengalensis; 3 in the assay on Acalypha australis. The “PSII Activity of oxygen evolution” value with photosystem II worked out at 24.00 uMO2/mgChlh. For the same compound, the “Activity of Hill Reaction” value in the assay with Hill reaction is reported as 46.20 uMO2/mgChlh. The “Time of Disease spot” value in the assay with Crofton weed came out at 11.93 ± 0.66 h. In addition, the “Average diameter of spot after 24 h” value with Crofton weed amounted to 8.10 ± 0.90 mm. In assay [1], this compound had a Fv/Fm of 0.82.

With `CCC(C)C1NC(=O)C(C(=O)CCc2cc(Cl)cc(Cl)c2)=C1O` (centres unmarked) [Compound 48], the Damage level is on record as 3 with Wild oats; 3 in the assay on Polygonum hydropiper; 4 with Trifolium pretense; 4 in the assay with Carpesium abrotanoides; 4 in the assay on Commelina communis; 4 with Keng stiffgrass. In addition, the Damage level in the assay on Abrtilon theophrasti is listed as 3; in the assay with Xanthium sibiricum, 3; in the assay on Malvaceae it was 2; in the assay on Duchesnea indica it was 3; in the assay on Commelina bengalensis, 4; in the assay with Acalypha australis, 3. The “Time of Disease spot” value with Crofton weed was determined as 13.5 ± 2.77 h. Also, in the assay on Crofton weed, the “Average diameter of spot after 24 h” value is 4.33 ± 0.54 mm.

Consider `CCCCCCC1NC(=O)C(C(C)=O)=C1O` (centres unmarked) [Compound 16], for which the Damage level was found to be 3 with Wild oats; 3 in the assay with Polygonum hydropiper; 3 in the assay with Trifolium pretense; 2 in the assay with Carpesium abrotanoides; 3 in the assay with Commelina communis; 3 in the assay with Keng stiffgrass. The Damage level with Abrtilon theophrasti is on record as 3; with Xanthium sibiricum, 2; with Malvaceae, 2; with Duchesnea indica, 2; in the assay on Commelina bengalensis, 3; in the assay with Acalypha australis it was 2. Also, the “PSII Activity of oxygen evolution” value in the assay on photosystem II was 30.00 uMO2/mgChlh. Further, the “Activity of Hill Reaction” value with Hill reaction is 61.43 uMO2/mgChlh. The “Time of Disease spot” value with Crofton weed is 13.80 ± 0.54 h. Further, the “Average diameter of spot after 24 h” value in the assay with Crofton weed is on record as 7.61 ± 0.11 mm. Also, in assay [1], the Fv/Fm came out at 0.83.

On to `CCC(C)C1NC(=O)C(C(=O)CCF)=C1O` (centres unmarked) [Compound 44], for which the Damage level was 3 with Wild oats; 3 with Polygonum hydropiper; 4 in the assay with Trifolium pretense; 3 in the assay with Carpesium abrotanoides; 2 in the assay with Commelina communis; 3 in the assay with Keng stiffgrass. Also, the Damage level was 2 in the assay with Abrtilon theophrasti; 2 in the assay on Xanthium sibiricum; 2 in the assay with Malvaceae; 3 in the assay with Duchesnea indica; 3 in the assay with Commelina bengalensis; 3 in the assay on Acalypha australis. Further, the “PSII Activity of oxygen evolution” value in the assay on photosystem II stood at 40.75 uMO2/mgChlh. In addition, the “Activity of Hill Reaction” value in the assay on Hill reaction worked out at 59.15 uMO2/mgChlh. In addition, the “Time of Disease spot” value in the assay on Crofton weed is reported as 12.0 ± 1.33 h. Also, the “Average diameter of spot after 24 h” value in the assay on Crofton weed is listed as 4.07 ± 0.51 mm. In [1], this compound came in with a Fv/Fm of 0.79.

As for `CCCC(C#N)C1NC(=O)C(=C(C)O)C1=O` (centres unmarked) [Compound 53], the Damage level was 3 in the assay on Wild oats; 3 in the assay on Polygonum hydropiper; 4 in the assay with Trifolium pretense; 2 with Carpesium abrotanoides; 3 with Commelina communis; 4 in the assay with Keng stiffgrass. Further, the Damage level amounted to 3 in the assay with Abrtilon theophrasti; 3 in the assay on Xanthium sibiricum; 3 in the assay on Malvaceae; 3 in the assay on Duchesnea indica; 3 in the assay with Commelina bengalensis; 2 with Acalypha australis. For the same compound, the “PSII Activity of oxygen evolution” value with photosystem II came to 32.12 uMO2/mgChlh. In the assay on Hill reaction, the “Activity of Hill Reaction” value was found to be 42.72 uMO2/mgChlh. In addition, the “Time of Disease spot” value with Crofton weed stood at 12.90 ± 0.27 h. Further, in the assay on Crofton weed, the “Average diameter of spot after 24 h” value is on record as 7.334 ± 0.845 mm. The Fv/Fm in [1] amounted to 0.79.

Consider `CCCCCC1NC(=O)C(C(C)=O)=C1O` (centres unmarked) [Compound 15], for which the Damage level came to 3 with Wild oats; 2 in the assay with Polygonum hydropiper; 3 in the assay with Trifolium pretense; 2 in the assay on Carpesium abrotanoides; 2 in the assay on Commelina communis; 3 in the assay with Keng stiffgrass. Besides, the Damage level in the assay with Abrtilon theophrasti is reported as 2; in the assay with Xanthium sibiricum, 2; in the assay on Malvaceae it was 2; in the assay with Duchesnea indica, 3; with Commelina bengalensis, 3; in the assay on Acalypha australis, 2. The “PSII Activity of oxygen evolution” value in the assay with photosystem II amounted to 31.26 uMO2/mgChlh. The “Activity of Hill Reaction” value in the assay with Hill reaction is listed as 62.77 uMO2/mgChlh. For the same compound, the “Time of Disease spot” value in the assay on Crofton weed was determined as 9.5 ± 1.26 h. Further, in the assay on Crofton weed, the “Average diameter of spot after 24 h” value was found to be 9.61 ± 1.20 mm. The same compound had a Fv/Fm in assay [1] of 0.78.

As for `CCCCC1NC(=O)C(C(C)=O)=C1O` (centres unmarked) [Compound 14], the Damage level in the assay on Wild oats was determined as 3; with Polygonum hydropiper, 2; with Trifolium pretense, 3; with Carpesium abrotanoides, 2; with Commelina communis, 2; in the assay with Keng stiffgrass it was 3. The Damage level in the assay with Abrtilon theophrasti worked out at 2; in the assay on Xanthium sibiricum, 2; in the assay with Malvaceae, 2; in the assay on Duchesnea indica it was 2; in the assay with Commelina bengalensis it was 3; with Acalypha australis it was 2. In addition, the “PSII Activity of oxygen evolution” value with photosystem II is given as 34.01 uMO2/mgChlh. In addition, the “Activity of Hill Reaction” value with Hill reaction worked out at 67.37 uMO2/mgChlh. Also, the “Time of Disease spot” value with Crofton weed is on record as 13.8 ± 0.54 h. In the assay with Crofton weed, the “Average diameter of spot after 24 h” value is 6.37 ± 0.04 mm. In assay [1], this compound had a Fv/Fm of 0.79.
